Data on two compounds can be found in ChEMBL document CHEMBL1159210, “The arenarans, sesquiterpene ethers from the marine sponge Dysidea arenaria” (J Nat Prod, 1995).

≈ marks a conversion by molar mass, not a printed value. Calls of active or inactive are those of the source. The calls are words filed in the database; no cut-off is given here.

Common to all, as to format: functional, cell-based
The subject of one experiment is A549. Kind of experiment: Cytotoxicity against human A549 cells.
The subject of the next experiment is P388. Kind of experiment: Cytotoxicity against mouse P388 cells.
A further experiment deals with HCT-29. Description: Cytotoxicity against human HCT29 cells.
Another experiment deals with HT-29. Kind of experiment: Cytotoxicity against human HT-29 cells.

On to `C/C1=C/CO[C@@]2(C)CCCC(C)(C)[C@@H]2CC1` [ARENARAN A], for which the IC50 was 9.51 µg/mL (≈ 42.8 µM) in the experiment with A549, 3.17 µg/mL (≈ 14.3 µM) in the experiment with P388, 5.28 µg/mL (≈ 23.7 µM) in the experiment with HCT-29 and 9.11 µg/mL (≈ 41 µM) with HT-29.
For the compound `CC1(C)CCC[C@]2(C)OC[C@H]3O[C@@]3(C)CC[C@@H]12`, the outcome with A549, in the experiment on P388, in the experiment on HCT-29 and with HT-29 was inactive.
